Reference: article PMC5770468, “Cardiac glycoside/aglycones inhibit HIV-1 gene expression by a mechanism requiring MEK1/2-ERK1/2 signaling” (Scientific Reports, 2018)

How the values were obtained:
[1] = test system: PBMCs from HIV-infected patients; assay: Cell viability by XTT in HIV-infected patient PBMCs; format: cell-based, human; details: up to 20 d of culture, relative to controls
Method: Figure 2 CSs inhibit the growth of clinical strains of HIV isolated from HIV infected patients. PBMCs from HIV infected patients were depleted of CD8^+ T cells (Supplementary Fig. S3), activated by anti-CD3 and anti-CD28 antibodies, and treated 20 d with indicated concentrations of drug/compound. HIV particle formation was quantitated by p24^CA ELISA of cell supernatants and viability of cells were assayed by XTT. […] (a–e) CSs potently impair the outgrowth of HIV from HIV-infected PBMCs (n = 3, mean, s.e.m.). Graphs of viral growth (p24 protein levels) and cell viability (gray circles, adjacent y-axis) of cells treated with drug/compounds (red triangles) or DMSO (black circles) are shown. The drug 3TC and the CS digoxin (d–e) were provided for comparison. […] Dose-response curves of CS effects on HIV replication (relative Gag expression, black circles) and cell viability (gray circles) were measured on day 14.
Human PBMCs were obtained for experiments from drug-naïve HIV-infected patients, depleted of CD8^+ T cells using Dynabeads CD8 (Invitrogen, #111.47D), activated with anti-CD3 and anti-CD28 antibodies, and treated as previously described and above[10],[11]. […] HIV growth in cultures was monitored by p24^CA ELISA of cell supernatants harvested (detailed below) and the effect of compounds on cell viability were monitored by XTT assay.

HIV-1 Tat (p16/p14) = assay: Immunoblot of HIV-1 Tat (p16/p14) in HeLa rtTA-HIV-ΔMls cells; format: cell-based; details: ~IC80 of CS, relative to DMSO (+Dox)
Method: Figure 3 CSs reduce expression of essential HIV-1 structural and regulatory proteins. HeLa rtTA-HIV-ΔMls cells were treated with ~IC80s of CSs (per Methods), 100 nM of RIDK-21 or -27, or DMSO for 4 h prior to Dox induction for 20 h as indicated. Cell extracts were analyzed by immunoblot of (a) HIV-1 structural proteins: Env (gp160/gp120) and Gag (p41/p24), and (b–d) viral regulatory factors: Rev (p19, b) and Tat (p16/p14, c,d). (d) Graph quantitating Tat expression. Results from (a–d) are from n ≥ 3, mean, s.e.m. […] (a and d) Lanes were cropped and assembled from the same blot per box from Supplementary Figure S4a,b and c, respectively.
To monitor HIV-1 gene expression or replication, Gag release into cell culture supernatants were assayed by ELISA using a p24^CA antigen capture assay kit (AIDS & Cancer Virus Program, NCI-Frederick, Frederick, MD USA). […] For analysis of HIV-1 and SR protein expression (and phosphorylation states with calf intestinal alkaline phosphatase treatments), cells were lysed and analyzed by western blot as previously outlined. […] Activation of MAPKs was determined by western blot quantitation and calculation of phospho/total protein levels. […] Stain-Free™ gels were casted and proteins were detected as described in 10% TGX-Stain-Free FastCast Acrylamide Kit from Bio-Rad (#161-0183). […]

[2] = design: method as in PMID 23555254, PMID 17706876, PMID 6409639; details: cited from earlier work

Structure (SMILES) | cell viability of HIV-infected PBMCs [1] | p16 Tat expression (HIV-1 Tat (p16/p14)) | recommended serum concentration in patients treated for heart conditions [2] [nM]
C[C@]12CC[C@H](O)C[C@H]1CC[C@@H]1[C@@H]2CC[C@]2(C)[C@@H](C3=CC(=O)OC3)CC[C@]12O [Digitoxigenin] | no observable changes in cell viability | 57 % of control | 
C[C@H]1O[C@@H](O[C@H]2[C@@H](O)C[C@H](O[C@H]3[C@@H](O)C[C@H](O[C@H]4CC[C@@]5(C)[C@H](CC[C@@H]6[C@@H]5CC[C@]5(C)[C@@H](C7=CC(=O)OC7)CC[C@]65O)C4)O[C@@H]3C)O[C@@H]2C)C[C@H](O)[C@@H]1O [Digitoxin] | no observable changes in cell viability |  | 20 to 34
